Paper PMC11593002 (Current Issues in Molecular Biology, 2024)
Values joined by “and” are separate entries in the source; they are usually repeats but may differ in a detail not shown here. Equal entries are not always repeated. “Also recorded” adds a separate entry of the source.

Assays:
[1] = tested on: MCF-10A; assay: MTT-dye reduction antiproliferative assay, MCF-10A; format: cell-based; settings: for IC50: Homo sapiens
Source text: (§1) Breast cell lines (MCF-10A, MCF-7, and MDA-MB-231) were purchased from the American Type Culture Collection—ATCC (Manassas, VA, USA). MCF-7 and MDA-MB-231 were cultivated in Dulbecco’s modified Eagle’s medium (DMEM), supplemented with 10% fetal bovine serum (FBS), 1% sodium pyruvate, and 1% MEM non-essential amino acids (NEAA) without antibiotics. The non-tumorigenic cell line (MCF-10A) was cultivated in DMEM medium (Sigma-Aldrich, St. Louis, MO, USA) and supplemented with 10% FBS, 1% sodium pyruvate, 1% non-essential amino acids (NEAA), 20 ng/mL human epidermal growth factor (hEGF), 10 μg/mL insulin, and 0.5 μg/mL hydrocortisone without antibiotics. All cell lines were maintained in a humidified atmosphere with 5% CO2 at 37 °C.
(§2) The antiproliferative activity was tested via using the standard MTT-dye reduction assay described by Mosmann. The method is based on the metabolism of the tetrazolium salt MTT to insoluble formazan. The formazan absorption was registered using a microplate reader at λ = 540 nm. The measured absorption is an indicator of cell viability and metabolic activity.

[2] = tested on: MDA-MB-231; assay: MTT-dye reduction antiproliferative assay, MDA-MB-231; format: cell-based
Source text: as §1, §2

[3] = tested on: MCF-7; assay: MTT-dye reduction antiproliferative assay, MCF-7; format: cell-based; settings: for increase in IC50: drug + Iscador Qu, concentration not given
Source text: as §1, §2

[4] = tested on: MCF-7; assay: Cell cycle analysis by propidium iodide staining (FACS), MCF-7; format: cell-based; settings: for effect on cell cycle of combination vs anticancer drug alone: drug + Iscador Qu (selected combinations); for effect on cell cycle: mono treatment
Description: (§3) After trypsinization, the cells (MCF7, MDA-MB-231, and MCF10A) were resuspended in medium + 10% FCS and centrifuged (1000 rpm, 5 min); then, the pellet was suspended in PBS (1 mL) and fixed with EtOH. After suspension in 2.5 mL pre-cold 70% EtOH, the cells were incubated on ice for 15 min. The staining procedure was as follows: The pellet was suspended in a 500 μL PI solution in PBS (final concentration of PI 1 μg/mL) and 0.1 mg/mL RNAse A, and 0.05% Triton X-100 was added. Following the incubation for 10 min at 37 °C, the cells were transferred to the flow cytometer, and cell fluorescence was measured. The samples were measured by flow cytometry (LSR II, BD Biosciences, Franklin Lakes, NJ, USA) and analyzed using BD FACS DIVA software v. 6.1.3 (BD Biosciences). The control samples of all cell lines underwent the same treatment but without the adding any anticancer drugs or Iscador Qu.
(§4) In the search of the mechanism of action, the cell cycle arrest induced after treatment with the selected combinations was analyzed. The cell aliquots were collected, and FACS analyses were used to detect the effects of the treatments. A propidium iodide staining assay was performed (Figures S1 and S2).

[5] = tested on: microtubule; parameters: method as in PMID 7670132; settings: cited from earlier work
[6] = tested on: MDA-MB-231; assay: Cell cycle analysis by propidium iodide staining (FACS), MDA-MB-231; format: cell-based; settings: for effect on cell cycle of combination vs anticancer drug alone: drug + Iscador Qu (selected combinations); for effect on cell cycle: treatment alone
Description: as §3, §4

[7] = MDA-MB-231, drug + Iscador Qu 80 µg/mL vs drug alone
[8] = Iscador Qu both concentrations (10 and 20 µg/mL) or not specified
[9] = drug + Iscador Qu 50 µg/mL vs drug alone
[10] = drug + Iscador Qu 100 µg/mL vs drug alone
[11] = MDA-MB-231, drug + Iscador Qu 40 µg/mL vs drug alone
[12] = drug + Iscador Qu 10 µg/mL vs drug alone
[13] = drug + Iscador Qu 20 µg/mL vs drug alone
[14] = Iscador Qu both concentrations (50 or 100 µg/mL) or not specified
[15] = MDA-MB-231, Iscador Qu both concentrations (40 and 80 µg/mL) or not specified
[16] = higher Iscador Qu concentration (20 µg/mL)

## CN(Cc1cnc2nc(N)nc(N)c2n1)c1ccc(C(=O)N[C@@H](CCC(=O)O)C(=O)O)cc1 [Methotrexate]
[1]; Iscador Qu 50 µg/mL
  effect of combined treatment with Iscador Qu on IC50 / antiproliferative effect: did not reduce the IC50 dose
[1]; Iscador Qu 100 µg/mL
  effect of combined treatment with Iscador Qu on IC50 / antiproliferative effect: slightly increased
[2]; [7]
  fold decrease in IC50: 1.5 fold
  reduction in IC50: about 30%
[3]; [8]
  effect of combined treatment with Iscador Qu on IC50 / antiproliferative effect: No effect
[3]; Iscador Qu both concentrations (10 and 20 µg/mL) or not specified, listed as methotrexate
  effect of combined treatment with Iscador Qu on IC50 / antiproliferative effect: did not exhibit any sensitivity

## COc1cccc2c1C(=O)c1c(O)c3c(c(O)c1C2=O)C[C@@](O)(C(=O)CO)C[C@@H]3O[C@H]1C[C@H](N)[C@H](O)[C@H](C)O1 [Doxorubicin]
[1]; [9]
  fold decrease in IC50: about 2 fold
[1]; [10]
  fold decrease in IC50: about 2 fold
[2]; [11]
  reduction in IC50 dose: 21%
[3]; [12]
  fold decrease in IC50: about 2 fold
  reduction in IC50 dose: 50%
[3]; [13]
  fold decrease in IC50: about 2 fold

## CCc1c2c(nc3ccc(OC(=O)N4CCC(N5CCCCC5)CC4)cc13)-c1cc3c(c(=O)n1C2)COC(=O)[C@]3(O)CC [Irinotecan]
[1]; [14]
  effect of combined treatment with Iscador Qu on IC50 / antiproliferative effect: did not affect IC50
[2]; [15]
  effect of combined treatment with Iscador Qu on IC50 / antiproliferative effect: very slight IC50 decrease; also recorded: No significant alteration in IC50
[3]; [8]
  effect of combined treatment with Iscador Qu on IC50 / antiproliferative effect: did not affect IC50; also recorded: No effect

## CC/C(=C(\c1ccccc1)c1ccc(OCCN(C)C)cc1)c1ccccc1 [Tamoxifen]
[3]
  increase in IC50: 31%

## O=C1[O][Pt]2([NH][C@@H]3CCCC[C@H]3[NH]2)[O]C1=O [Oxaliplatin]
[1]; [14]
  effect of combined treatment with Iscador Qu on IC50 / antiproliferative effect: increased the antiproliferative effect
[2]; [15]
  effect of combined treatment with Iscador Qu on IC50 / antiproliferative effect: increased the antiproliferative effect
[2]; [11]
  Relative Change of IC50 (%): −48.45%
  fold decrease in IC50: 1.9 fold
[2]; [7]
  Relative Change of IC50 (%): −69.56%
  fold decrease in IC50: 3.3 fold
  reduction in IC50: 70%
[3]; [8]
  effect of combined treatment with Iscador Qu on IC50 / antiproliferative effect: increased the antiproliferative effect
[3]; [12]
  Relative Change of IC50 (%): −47.30%
  fold decrease in IC50: ~2 fold
[3]; [13]
  Relative Change of IC50 (%): −80.76%
  fold decrease in IC50: 5.2 fold
  reduction in IC50: 81%
[4]
  effect on cell cycle of combination vs anticancer drug alone: no significant difference
  effect on cell cycle: arrest in the G2/M phase

## COc1cccc2c1C(=O)c1c(O)c3c(c(O)c1C2=O)C[C@@](O)(C(=O)CO)C[C@@H]3O[C@H]1C[C@H](N)[C@@H](O)[C@H](C)O1 [Epirubicin]
[1]; drug alone
  IC50: 387000 nM
[1]; [10]
  fold decrease in IC50: 2 fold
[2]; [11]
  fold decrease in IC50: 2 fold
[2]; [7]
  fold decrease in IC50: 2 fold
  reduction in IC50: 47%
[3]; [8]
  effect of combined treatment with Iscador Qu on IC50 / antiproliferative effect: did not exhibit significant sensitivity; also recorded: No effect

## CC(=O)O[C@@]12CO[C@@H]1C[C@H](O)[C@@]1(C)C(=O)[C@H](O)C3=C(C)[C@@H](OC(=O)[C@H](O)[C@@H](NC(=O)OC(C)(C)C)c4ccccc4)C[C@@](O)([C@@H](OC(=O)c4ccccc4)[C@H]21)C3(C)C [Docetaxel]
[1]; drug + Iscador Qu 50 µg/mL
  IC50: ~4.2 nM
[1]; drug + Iscador Qu 100 µg/mL
  IC50: ~4.2 nM
[1]; single treatment with drug
  IC50: 5.18 nM
[1]; [14]
  effect of combined treatment with Iscador Qu on IC50 / antiproliferative effect: slightly reduced
[1]; [9]
  fold decrease in IC50: 1.2 fold
[1]; [10]
  fold decrease in IC50: 1.2 fold
[2]; [11]
  fold decrease in IC50: more than 2 fold
[2]; [7]
  fold decrease in IC50: 4 fold
  reduction in IC50: 72%
[3]; [16]
  effect of combined treatment with Iscador Qu on IC50 / antiproliferative effect: very slight IC50 decrease
[3]; low Iscador Qu concentration (10 µg/mL)
  effect of combined treatment with Iscador Qu on IC50 / antiproliferative effect: IC50 increase
[5]
  potency as an inhibitor of microtubule depolymerization compared to Paclitaxel: 2 fold
[6]
  effect on cell cycle of combination vs anticancer drug alone: did not alter the effect
  effect on cell cycle: cell cycle arrest in the G0 phase

## O=C(c1cc(Cc2n[nH]c(=O)c3ccccc23)ccc1F)N1CCN(C(=O)C2CC2)CC1 [Olaparib]
[1]; [14]
  effect of combined treatment with Iscador Qu on IC50 / antiproliferative effect: slight decrease in IC50 dose
[2]; MDA-MB-231, Iscador Qu 40 µg/mL
  effect of combined treatment with Iscador Qu on IC50 / antiproliferative effect: negative treatment effect
[2]; [15]
  effect of combined treatment with Iscador Qu on IC50 / antiproliferative effect: increase in IC50 dose
[2]; [7]
  increase in IC50: 22%
[3]; [8]
  effect of combined treatment with Iscador Qu on IC50 / antiproliferative effect: antagonistic effect; also recorded: increase in IC50 dose
[3]
  increase in IC50: 37%
[3]; [16]
  effect of combined treatment with Iscador Qu on IC50 / antiproliferative effect: negative treatment effect
[4]
  effect on cell cycle of combination vs anticancer drug alone: no significant difference
  effect on cell cycle: arrest in the G2/M phase

## N.N.[Cl][Pt][Cl] [Cisplatin, cis-diamminedichloroplatinum (II)]
[1]; [14]
  effect of combined treatment with Iscador Qu on IC50 / antiproliferative effect: enhanced the antiproliferative effect
[2]; [11]
  Relative Change of IC50 (%): 56.77%
[2]; [7]
  Relative Change of IC50 (%): 43.80%
  increase in IC50: 44%
[2]; MDA-MB-231, drug + Iscador Qu, concentration not given
  fold increase in IC50 (reduced antiproliferative effect): 1.5 fold and 1.6 fold
[3]; [12]
  Relative Change of IC50 (%): 8.36%
[3]; [13]
  Relative Change of IC50 (%): −29.37%
  reduction in IC50: 30%
[6]
  effect on cell cycle of combination vs anticancer drug alone: did not alter the effect
  effect on cell cycle: blocked the cells in the S phase

## O=c1[nH]cc(F)c(=O)[nH]1 [5-Fluorouracyl, 5-Fluorouracil]
[1]; Iscador Qu 50 µg/mL
  effect of combined treatment with Iscador Qu on IC50 / antiproliferative effect: did not change the antiproliferative properties
[1]; Iscador Qu 100 µg/mL
  effect of combined treatment with Iscador Qu on IC50 / antiproliferative effect: slightly decreased
[2]; Homo sapiens, MDA-MB-231, drug alone
  IC50: 2040 nM
[2]; [11]
  fold decrease in IC50: 1.2 fold
[2]; [7]
  fold decrease in IC50: 1.5 fold
  reduction in IC50: about 30%
[2]; combination with Iscador Qu
  lesser reduction in IC50 in MDA-MB-231 compared to MCF-7: 33%
[3]; Homo sapiens, MCF7, drug alone
  IC50: 6790 nM
[3]; [12]
  fold decrease in IC50: 1.5 fold
[3]; [13]
  fold decrease in IC50: 2.7 fold
  reduction in IC50: ~65%

## CN(C)C(=O)c1cc2cnc(Nc3ccc(N4CCNCC4)cn3)nc2n1C1CCCC1 [Ribociclib]
[1]; [14]
  effect of combined treatment with Iscador Qu on IC50 / antiproliferative effect: did not significantly affect
[2]; [15]
  effect of combined treatment with Iscador Qu on IC50 / antiproliferative effect: did not significantly affect; also recorded: No significant alteration in IC50
[3]; [12]
  fold decrease in IC50: 2 fold
[3]; [13]
  fold decrease in IC50: 3 fold
  reduction in IC50: ~65%
